Test results published in patent US6599941B1, “Insecticide and insect repellant compositions” (priority 1993, dated 2003).

Test: Tolerability of mono-ethanolamine on humans
Type: in vivo
Conditions: when used in higher concentrations

In the case of `NCCO` [mono-ethanolamine, 2-aminoethanol], the “irritation of eyes and mucus membranes” value is reported as “irritating to the eyes and mucus membranes”.
